Laboratory results reported in PMC11059093 (Frontiers in Chemistry, 2024).

Columns and labels:
[1] = target: T1, Cu^2+-induced Aβ1-42 aggregation (Homo sapiens, UniProt P05067); test: Cu^2+-induced Aβ1-42 aggregation, thioflavin T fluorometric detection; assay type: biochemical; conditions: ThT, compound stock 150 μM; for Disaggregation of Cu^2+-induced Aβ1-42 aggregation: Figure 4A; for Inhibition of Cu^2+-induced Aβ1-42 aggregation: Figure 4B
T1 construct: Aβ1-42 (Sigma-Aldrich A9810, 20 μM) was dissolved in HEPES buffer; purchased Sigma-Aldrich A9810
Description: To further detect the ability of compounds 6b, CQ and MT to disaggregate or inhibit the Cu^2+-induced Aβ1-42 aggregation, we conducted thioflavin T fluorometric detection ([Hu et al., 2019]).
Detection of the compounds for disaggregated and inhibitory effects on Cu^2+ induced Aβ1-42 aggregation. Aβ1-42 (Sigma-Aldrich A9810, 20 μM) was dissolved in HEPES buffer (pH = 6.6, containing 1% ammonium hydroxide). 10 μL of Aβ1-42 was previously incubated with or without Cu^2+ at 37°C for 3 days to pre-fibrillation. 10 μL of 6b, CQ, and MT (150 μM, in DMSO) were incubated before or after the pre-fibrillation of Aβ1-42 at 37°C for 1 day. After incubation, 170 μL of thioflavin T (5 μM, in 50 mM glycine-NaOH buffer) was added to mix well. After incubation for 5 min, the Aβ1-42 aggregation was detected by Microplate Reader (HITACHI, F-4700) with excitation/emission at 450/485 nm.

Aβ1–42 = target: T2, Aβ1–42 (Homo sapiens, UniProt P05067); test: Inhibition of self-mediated Aβ1–42 aggregation, thioflavin T fluorescence assay; assay type: biochemical; conditions: ThT assay, compounds 20 μM, mean of n = 3 ± SD
T2 construct: Aβ1−42 (Sigma-Aldrich) was dissolved in NH4OH (1% v/v) to get a stock solution; purchased Sigma-Aldrich

[2] = Parallel artificial membrane permeability assay for the blood-brain barrier (PAMPA-BBB); conditions: for Papp / P e: PAMPA; for P e: can cross the blood-brain barrier; for pred (predicted BBB permeation): classified from PAMPA-BBB Pe
[3] = Oxygen radical absorbance capacity (ORAC-FL) assay; conditions: compounds 5 µM, mean of n = 3 ± SD
Description: The solution of 2,2′-azobis- (amidinopropane) dihydrochloride (AAPH) was prepared to a final concentration of 40 mM. The mixture of the tested compounds (20 µL) and FL (120 μL; 70 nM) was pre-incubated for 10 min at 37°C, 60 µL of the AAPH solution was added. The fluorescence was recorded every minute for 120 min (excitation, 485 nm; emission, 520 nm). The antioxidant curves (fluorescence versus time) were normalized to the curve of the blank.
Where f0 is the initial fluorescence reading at 0 min and fi is the fluorescence reading at time i. The net AUC was calculated by the expression: AUCsample—AUCblank. Regression equations between net AUC and Trolox concentration were calculated. ORAC-FL value of the tested compound expressed as Trolox equivalents.

in vitro = conditions: PAMPA
[4] = 13 commercial drugs for validation, literature value; ref Bibl a; cited from earlier work
SH-SY5Y [5] = test: Cytotoxicity assay on SH-SY5Y cells; assay type: cell-based
Description: (§1) To further investigate the bioactivity of the compounds, cytotoxicity was evaluated on SH-SY5Y and BV2 cell lines (Figures 2A, B).
(§2) FIGURE 2 Cytotoxicity assay of 6b and 6c on SH-SY5Y (A) and BV2 (B). Protective effect of 6b and 6c against H2O2 induced SH-SY5Y oxidative stress (C).

SH-SY5Y [6] = test: Hydrogen peroxide induced oxidative stress (ROS, DCFH-DA probe) in SH-SY5Y cells; assay type: cell-based; conditions: SH-SY5Y treated with 400 μM hydrogen peroxide for 12 h
From the text: as §2
The effect of 6b and 6c on the oxidative stress of SH-SY5H cells induced by hydrogen peroxide was investigated using DCFH-DA as the fluorescent probe ([Xu et al., 2021]).

[7] = Metal-chelating study by UV spectrophotometry; assay type: physicochemical; conditions: for Metal-chelating property: 50 µM compound with Cu^2+, Zn^2+, Fe^2+ or Fe^3+ (50 µM), HEPES pH 7.4, UV-vis; for Inflection point, concentration ratio of Cu^2+ to compound: 50 µM compound, 0–100 µM copper ion, inflection point method
Description: To further evaluate multi-target anti-AD potential, the metal-chelating properties of 6b and 6c were determined by UV spectrophotometry ([Geng et al., 2012]; [Lu et al., 2013]; [Hu et al., 2019]). […] While co-incubated with Fe^3+ or Fe^2+, the intensity at 255 nm was in different degrees decreased. The same result occurred for 6c. […] Next, the chelation ratios of 6b and 6c to Cu^2+ were measured and calculated using the inflection point method (Figures 3B, D). The inflection point appears when the concentration ratio of compound Cu^2+ to 6b or 6c is 0.5, so it can be inferred that the chelation ratio of compound 6b and 6c to Cu^2+ is 2:1.
6b and 6c (50 µM) were incubated with CuSO4, FeSO4, FeCl3, or ZnCl2 (50 µM) in buffer (20 mM HEPES, 150 mM NaCl, pH 7.4) for 30 min, and the absorption spectras were recorded at room temperature. For the stoichiometry of the compound–Cu^2+ complex, a fixed amount of 6b and 6c (50 µM) was mixed with growing amounts of copper ion (0–100 µM), and the difference UV−vis spectra were examined to investigate the ratio of ligand/metal in the complex.

BV2 = test: Cytotoxicity assay on BV2 cells; assay type: cell-based; conditions: BV2, 20 μM
Description: as §1, §2

T1 sequence (P05067 672-713 limits assumed): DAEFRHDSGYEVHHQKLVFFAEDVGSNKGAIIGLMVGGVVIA
T2 sequence (P05067 672-713 limits assumed): as above

Row | inhibition at 20 µM (Aβ1–42) [%] | Papp [2] [×10⁻⁶ cm/s] | Structure (SMILES) | P e [2] | pred (predicted BBB permeation) [2] | ORAC [3] [Trolox equivalents] | further results
1 | 39 ± 9.35 | – | COc1ccc2[nH]cc(CCNC(C)=O)c2c1 [Melatonin] | – | – | – | Disaggregation of Cu^2+-induced Aβ1-42 aggregation [1]: mild disaggregated effect; Inhibition of Cu^2+-induced Aβ1-42 aggregation [1]: weak inhibitory activity
2 | 19.2 ± 5.85 | 6.81 ± 1.13 | O=C(NCc1c[nH]c2ccccc12)c1ccc2cccc(O)c2n1 [Compound 6d, N-((1H-indol-3-yl)methyl)-8-hydroxyquinoline-2-carboxamide] | > 4.7 | CNS+ (Compounds of high BBB permeation (CNS+) Pe>4.7) | 2.32 ± 0.17 | –
3 | 19.7 ± 2.06 | 1.12 ± 0.42 | COc1ccc2[nH]cc(CCNC(=O)c3ccc4cccnc4c3O)c2c1 [Compound 13b, 8-hydroxy-N-(2-(5-methoxy-1H-indol-3-yl)ethyl)quinoline-7-carboxamide] | – | CNS− (Compounds of low BBB permeation (CNS -) Pe<1.8) | 1.33 ± 0.02 | –
4 | – | – | CN(C)CCCN1c2ccccc2Sc2ccccc21 [promazine] | – | – | – | Pe, Bibl [4]: 8.8 ×10⁻⁶ cm/s
5 | 63.2 ± 2.02 | 6.91 ± 0.92 | COc1ccc2[nH]cc(CCNC(=O)c3ccc4cccc(O)c4n3)c2c1 [Compound 6b, 8-hydroxy-N-(2-(5-methoxy-1H-indol-3-yl)ethyl)quinoline-2-carboxamide] | > 4.7 | CNS+ (Compounds of high BBB permeation (CNS+) Pe>4.7) | 2.76 ± 0.01 | Cytotoxicity (SH-SY5Y [5]; 5 μM): no cytotoxicity; Cytotoxicity (SH-SY5Y [5]; 10 μM): slight toxicity; Disaggregation of Cu^2+-induced Aβ1-42 aggregation [1]: significantly disaggregated; Inhibition of Cu^2+-induced Aβ1-42 aggregation [1]: distinct inhibitory effect; ROS production after pretreatment (SH-SY5Y [6]): reduced ROS production in a dose-dependent manner; Metal-chelating property [7]: possess metal-chelating properties; Inflection point, concentration ratio of Cu^2+ to compound [7]: 0.5; Cytotoxicity (BV2): no significant cytotoxicity
6 | – | – | CN1C(C(=O)Nc2ccccn2)=C(O)c2ccccc2S1(=O)=O [piroxicam] | – | – | – | Pe, Bibl [4]: 2.5 ×10⁻⁶ cm/s
7 | 34.9 ± 2.91 | 1.35 ± 0.25 | COc1ccc2[nH]cc(CC(=O)NCc3ccc(O)c4ncccc34)c2c1 [Compound 11b, N-((8-hydroxyquinolin-5-yl)methyl)-2-(5-methoxy-1H-indol-3-yl)acetamide] | – | CNS− (Compounds of low BBB permeation (CNS -) Pe<1.8) | 3.58 ± 0.12 | –
8 | 40.3 ± 2.09 | 2.96 ± 0.58 | O=C(NCCc1c[nH]c2ccc(O)cc12)c1ccc2cccc(O)c2n1 [Compound 6c, 8-hydroxy-N-(2-(5-hydroxy-1H-indol-3-yl)ethyl)quinoline-2-carboxamide] | – | CNS± (Compounds of uncertain BBB permeation (CNS+/ -) 4.7>Pe>1.8) | 3.23 ± 0.02 | Cytotoxicity (SH-SY5Y [5]; 5 μM): no cytotoxicity; Cytotoxicity (SH-SY5Y [5]; 10 μM): slight toxicity; ROS production after pretreatment (SH-SY5Y [6]): reduced ROS production in a dose-dependent manner; Metal-chelating property [7]: possess metal-chelating properties; Inflection point, concentration ratio of Cu^2+ to compound [7]: 0.5; Cytotoxicity (BV2): no significant cytotoxicity
9 | 30.8 ± 1.08 | – | Oc1c(I)cc(Cl)c2cccnc12 [CQ, clioquinol, reference compound] | – | – | – | Disaggregation of Cu^2+-induced Aβ1-42 aggregation [1]: significantly disaggregated
10 | 20.5 ± 4.72 | 5.09 ± 1.32 | Oc1cccc2ccc(CNCc3c[nH]c4ccccc34)nc12 [Compound 3d, 2-((((1H-indol-3-yl)methyl)amino)methyl)quinolin-8-ol] | > 4.7 | CNS+ (Compounds of high BBB permeation (CNS+) Pe>4.7) | 2.60 ± 0.20 | –
11 | 52.9 ± 6.38 | – | COc1cc(/C=C/C(=O)CC(=O)/C=C/c2ccc(O)c(OC)c2)ccc1O [Curcumin, reference compound] | – | – | – | –
12 | 44.7 ± 5.18 | 2.82 ± 0.42 | O=C(Cc1c[nH]c2ccccc12)NCc1ccc(O)c2ncccc12 [Compound 11a, N-((8-hydroxyquinolin-5-yl)methyl)-2-(1H-indol-3-yl)acetamide] | – | CNS± (Compounds of uncertain BBB permeation (CNS+/ -) 4.7>Pe>1.8) | 2.91 ± 0.16 | –
13 | 45.45 ± 0.41 | 7.71 ± 0.61 | O=C(NCCc1c[nH]c2ccccc12)c1ccc2cccc(O)c2n1 [Compound 6a, N-(2-(1H-indol-3-yl)ethyl)-8-hydroxyquinoline-2-carboxamide] | > 4.7 | CNS+ (Compounds of high BBB permeation (CNS+) Pe>4.7) | 2.49 ± 0.22 | –
14 | 47 ± 6.25 | 3.98 ± 0.45 | O=C(NCCc1c[nH]c2ccccc12)c1ccc2cccnc2c1O [Compound 13a, N-(2-(1H-indol-3-yl)ethyl)-8-hydroxyquinoline-7-carboxamide] | – | CNS± (Compounds of uncertain BBB permeation (CNS+/ -) 4.7>Pe>1.8) | 1.06 ± 0.07 | –
15 | – | 6.63 ± 0.81 | CN(C)CCCN1c2ccccc2Sc2ccc(Cl)cc21 [Chlorpromazinne, chlorpromazine, reference compound] | – | CNS+ (Compounds of high BBB permeation (CNS+) Pe>4.7) | – | –
16 | 38.6 ± 5.12 | 2.65 ± 0.46 | O=C(NCc1c[nH]c2ccccc12)c1ccc2cccnc2c1O [Compound 13c, N-((1H-indol-3-yl)methyl) -8-hydroxyquinoline-7-carboxamide] | – | CNS± (Compounds of uncertain BBB permeation (CNS+/ -) 4.7>Pe>1.8) | 0.94 ± 0.02 | –

Row | Structure (SMILES) | inhibition at 20 µM (Aβ1–42) [%] | Papp [2] [×10⁻⁶ cm/s] | P e [2] | pred (predicted BBB permeation) [2] | ORAC [3] [Trolox equivalents] | further results
17 | Oc1cccc2ccc(CNCCc3c[nH]c4ccccc34)nc12 [Compound 3a, 2-(((2-(1H-indol-3-yl)ethyl)amino)methyl)quinolin-8-ol] | 27.1 ± 5.01 | – | > 4.7 | CNS+ (Compounds of high BBB permeation (CNS+) Pe>4.7) | 3.50 ± 0.12 | Papp (in vitro): 8.08 ± 0.56 ×10⁻⁶ cm/s
18 | COc1ccc2[nH]cc(CCNCc3ccc4cccc(O)c4n3)c2c1 [Compound 3b, 2-(((2-(5-methoxy-1H-indol-3-yl)ethyl)amino)methyl)quinolin-8-ol] | 18.2 ± 2.02 | – | > 4.7 | CNS+ (Compounds of high BBB permeation (CNS+) Pe>4.7) | 3.25 ± 0.10 | Papp (in vitro): 6.61 ± 0.22 ×10⁻⁶ cm/s
19 | CN(CCc1c[nH]c2ccccc12)Cc1ccc2cccc(O)c2n1 [Compound 4, 2-(((2-(1H-indol-3-yl)ethyl)(methyl)amino)methyl)quinolin-8-ol] | 52.5 ± 6.47 | – | > 4.7 | CNS+ (Compounds of high BBB permeation (CNS+) Pe>4.7) | 2.93 ± 0.15 | Papp (in vitro): 9.87 ± 0.66 ×10⁻⁶ cm/s
20 | Oc1ccc2[nH]cc(CCNCc3ccc4cccc(O)c4n3)c2c1 [Compound 3c, 2-(((2-(5-hydroxy-1H-indol-3-yl)ethyl)amino)methyl)quinolin-8-ol] | 40.2 ± 2.89 | – | > 4.7 | CNS+ (Compounds of high BBB permeation (CNS+) Pe>4.7) | 4.47 ± 0.18 | Papp (in vitro): 4.81 ± 0.87 ×10⁻⁶ cm/s
